Experimental data from patent US12434076B2, “Low energy immune priming for treating cancer and metastasis” (priority 2017, dated 2025).

How the values were obtained:
[1] = Toxicity and dose finding of 17AAG in mice; type: in vivo, mouse
Description: (§1) This protocol yielded an approximate in situ spatial-peak temporal-average acoustic intensity of 270 W/cm^2, resulting in estimated average infra-tumoral temperature elevation of 3.2° C. Post-treatment, there were no signs of normal tissue toxicity such as alopecia, thermal damage, or skin wounds. […] Control mice were injected with equal volume of the vehicle DMSO, which was used to solubilize 17AAG.
Thus, these dose levels were selected for the current study. The goal was to combine two therapies that are nontoxic, albeit subtherapeutic, and examine whether the combination can be therapeutic. […] To detect the level of ER stress, the expression levels of ER chaperones, ERp44, ERp57, and ERp72 were quantitated among different treatment groups. ERp44 is responsible for oxidative protein folding. ERp57 is an ER resident thiol disulfide oxidoreductase while Erp72 is a disulfide isomerase. All these proteins participate in the protein folding machinery of the ER.
(§2) Tumor model and treatment; C57Bl/6 and BalbC nu/nu mice were injected subcutaneously with 1×10^5 RM-1 (murine prostate cancer cell line) and 1×10^6 PC3 (human prostate cancer cell line) cells on the flank, respectively. Approximately 10 days later, the tumor became palpable (3-5 mm in diameter), whereupon LOFU treatment was initiated. […] Palpable tumors were treated with LOFU every 3-4 days for five fractions administered over two weeks. Animals received 17AAG three times a week during this time. Tumor volume measurements were performed twice weekly using Vernier calipers along with simultaneous physical assessment of signs of systemic toxicity (malaise and diarrhea).
Kaplan-Meier Survival analysis: Mice survival/mortality in different treatment groups was analyzed by Kaplan-Meier as a function of radiation dose using Sigma-Plot and GraphPad Prism (version 4.0 for OS X, San Diego, CA, USA) software.

[2] = tested on: RM1 tumor; test: RM1 tumor growth in C57Bl/6 mice (LOFU, 17AAG); type: in vivo, mouse; details: for tumor volume: intraperitoneal, three times a week, untreated tumor 1879±98.65 mm^3
Description: as §1, §2

[3] = tested on: human hepatocellular carcinoma cell lines (HepG2, Hep3B, Huh7); test: Cell growth and cell death of human HCC cell lines (LOFU, WP1066); type: cell-based; details: WP1066 added prior LOFU treatment
[4] = tested on: TPSA23 tumor cells; test: Clonogenic assay, TPSA23; type: cell-based, murine

C=CCNC1=C2C[C@@H](C)C[C@H](OC)[C@H](O)[C@@H](C)/C=C(\C)[C@H](OC(N)=O)[C@@H](OC)/C=C\C=C(/C)C(=O)NC(=CC1=O)C2=O [17AAG, 17-N-allylamino-17-demethoxygeldanamycinan]
death of mice (Kaplan Meier survival analysis) ([1]; 75 mg/kg of body weight, after 21 days of treatment, C57Bl/6 mice): 50%
low dose found to be nontoxic ([1]; Balb/c nude mice): 14 mg/kg
low dose found to be nontoxic ([1]; C57Bl/6 mice): 25 mg/kg
normal tissue toxic effect ([1]; low dose 17AAG 25 mg/kg body weight): did not show any normal tissue toxic effect
average estimated tumor growth slower compared to control group ([2]; 17AAG 25 mg/kg body weight): 9%
interval within which all animals achieved tumor size 2000 mm^3 ([2]; 17AAG 25 mg/kg body weight): 26 to 30 days
tumor volume ([2]; 17AAG 50 mg/kg b.w.): 964 mm3
tumor volume ([2]; 17AAG 75 mg/kg b.w.): 485±24.25 mm3

C[C@H](NC(=O)/C(C#N)=C/c1cccc(Br)n1)c1ccccc1 [WP1066]
inducing cell death [3]: superior effect on inducing cell death

CNC(=O)c1ccc(N2C(=S)N(c3cnc(C#N)c(C(F)(F)F)c3)C(=O)C23CCC3)cc1F [apalutamide]
clonogenicity (colonies) ([4]; 5 μM apalutamide in combination with LOFU, vs apalutamide or LOFU alone): significantly fewer colonies
clonogenicity ([4]; 10 μM apalutamide alone): significant reduction in clonogenicity
clonogenicity ([4]; 10 μM apalutamide in combination with LOFU): still more effective
